# Assay results from PubChem BioAssay (NCI).
#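 Dose response: 5 concentrations. Exposure: 48 h. Format: 96-well plates. Endpoint: linear interpolation; highest concentration if not reached. GI50 is the concentration that inhibits growth by half. TGI: total growth inhibition.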
# Experiments:
# Test in all cases: NCI tumour cell line growth inhibition, 48 h
# BT-549 breast = test system: BT-549 breast
# HOP-92 NSCLC = test system: HOP-92 NSCLC
# MCF7 breast = test system: MCF7 breast
# RPMI-8226 leukemia = test system: RPMI-8226 leukemia
# SF-268 CNS = test system: SF-268 CNS
# SF-539 CNS = test system: SF-539 CNS
# SK-MEL-28 melanoma = test system: SK-MEL-28 melanoma
# TK-10 renal = test system: TK-10 renal
# U251 CNS = test system: U251 CNS
# UACC-257 melanoma = test system: UACC-257 melanoma
SMILES,GI50 (BT-549 breast),TGI (BT-549 breast),GI50 (HOP-92 NSCLC),TGI (HOP-92 NSCLC),GI50 (MCF7 breast),TGI (MCF7 breast),GI50 (RPMI-8226 leukemia),TGI (RPMI-8226 leukemia),GI50 (SF-268 CNS),TGI (SF-268 CNS),GI50 (SF-539 CNS),TGI (SF-539 CNS),GI50 (SK-MEL-28 melanoma),TGI (SK-MEL-28 melanoma),GI50 (TK-10 renal),TGI (TK-10 renal),GI50 (U251 CNS),TGI (U251 CNS),GI50 (UACC-257 melanoma),TGI (UACC-257 melanoma)
CCOC(=O)c1cc(-c2ccccc2)[nH]c1N/N=C/c1ccc(Cl)cc1,46.8 µM,> 100 µM,46.9 µM,> 100 µM,19.5 µM,> 100 µM,29.8 µM,> 100 µM,> 100 µM,> 100 µM,> 100 µM,> 100 µM,> 100 µM,> 100 µM,> 100 µM,> 100 µM,> 100 µM,> 100 µM,> 100 µM,> 100 µM
CCN(CC)C(=S)SCN1C(=O)c2ccccc2S1(=O)=O,63.4 µM,> 100 µM,> 100 µM,> 100 µM,0.562 µM,> 100 µM,< 0.01 µM,–,34.2 µM,> 100 µM,41.7 µM,> 100 µM,31 µM,> 85.1 µM,> 52.4 µM,> 100 µM,52.5 µM,> 100 µM,56.3 µM,> 100 µM
OCCNc1nc(Nc2ccc(Cl)c(Cl)c2)nc2ccccc12,16 µM,29.8 µM,2.05 µM,7.51 µM,1.96 µM,14.6 µM,3.74 µM,22.1 µM,6.78 µM,20.8 µM,5.68 µM,20.6 µM,6.38 µM,20.7 µM,14.3 µM,27.9 µM,3.7 µM,15.5 µM,11.1 µM,23.1 µM
C/C(O)=C(\C#N)C(=O)Nc1ccc(C(F)(F)F)cc1,51.7 µM,> 100 µM,13.4 µM,> 100 µM,38.5 µM,> 100 µM,24.8 µM,> 100 µM,15 µM,> 100 µM,16 µM,> 100 µM,69.5 µM,> 100 µM,> 100 µM,> 100 µM,5.34 µM,> 100 µM,> 100 µM,> 100 µM
O=[N+]([O-])c1cc(C(F)(F)F)ccc1Sc1ccc(C(F)(F)F)cc1[N+](=O)[O-],7.52 µM,> 100 µM,7.96 µM,> 100 µM,9.39 µM,> 100 µM,6.69 µM,> 100 µM,7.07 µM,> 100 µM,9.15 µM,> 100 µM,13.2 µM,> 100 µM,28.3 µM,> 100 µM,12.9 µM,> 100 µM,6.65 µM,> 100 µM
O=C(O)c1c(=O)cccc2ssc12,1.68 µM,3.12 µM,1.86 µM,3.79 µM,1.83 µM,3.9 µM,2.19 µM,5.66 µM,1.73 µM,3.46 µM,1.98 µM,3.84 µM,1.69 µM,3.25 µM,1.75 µM,3.23 µM,1.74 µM,3.16 µM,2.02 µM,4.19 µM
COc1cc(C2=N/C(=C/c3cccs3)C(=O)O2)cc(OC)c1OC,–,> 100 µM,–,> 100 µM,–,> 100 µM,–,> 100 µM,–,> 100 µM,–,> 100 µM,–,> 100 µM,–,> 100 µM,–,> 100 µM,–,> 100 µM
C=C(CO)[C@@H]1CC[C@]2(COC3CCCCO3)CC[C@]3(C)[C@H](CC[C@@H]4[C@@]5(C)C=C(C=O)C(=O)C(C)(C)[C@@H]5CC[C@]43C)[C@@H]12 (some centres undefined),0.221 µM,0.619 µM,0.147 µM,0.312 µM,0.479 µM,1.97 µM,0.244 µM,0.777 µM,0.297 µM,0.979 µM,0.196 µM,0.428 µM,0.254 µM,0.688 µM,0.257 µM,0.688 µM,0.209 µM,0.546 µM,0.367 µM,1.61 µM
CCCN(CCC)c1ccc(/C=N/NC(=O)c2cccnc2)c(OC)c1,28.4 µM,84.8 µM,13.4 µM,61.8 µM,19.1 µM,89.1 µM,34.5 µM,> 100 µM,26 µM,88.7 µM,28.3 µM,> 100 µM,26.6 µM,98 µM,28.7 µM,90.1 µM,23.2 µM,> 100 µM,20.7 µM,67.6 µM
